The conditions of data set [1]: pulmonary artery banding, previous study; cited from earlier work.
The target of data set [2] is T1, HDAC4 (Homo sapiens, UniProt P56524).
T1 construct: phosphorylation of endogenously expressed HDAC4 and HDAC5; endogenous in cells; host or cells: PAECs from PAH patient(s)
Briefly: HDAC4 degradation in PAECs from a PAH patient (western blot). In kind it is cell-based. As to conditions: 1 μM for 24 hr. (In western blotting, separated proteins are transferred to a membrane and probed.)

The test system of data set [3] is FGF2. Briefly: FGF2 expression in lungs of PH model rats. In kind it is in vivo, rat. As to conditions: two PH models, lung homogenates, MC1568 50 mg per kg intraperitoneal daily. The protocol:
(§1) Male Sprague Dawley rats (200-250 g; Charles River Laboratories) were subcutaneously injected with monocrotaline (Sigma) (60 mg per kg body weight) for the MCT model. For the SUGEN model, SU-5416 (Sigma) was resuspended in DMSO (Sigma) and injected subcutaneously (20 mg per kg body weight). Rats were subsequently exposed to hypoxia (10% FiO2) for 2 weeks. Rats were given intraperitoneal administration of either the vehicle (DMSO), MC1568 (Sellek Chemicals and DC Chemicals) (50 mg per kg body weight), TMP269 (DC Chemicals) (intraperitoneal injection of 50 mg/kg/day for two weeks), or Tasquinimod (DC Chemicals) (oral gavage of 10 mg/kg/day for two weeks) daily as indicated (FIG. 13).
Right ventricular systolic pressure (RVSP) measurements were performed at the designated time points under isoflurane by inserting a catheter (Millar Instruments) into the right jugular vein as described previously.^21 Lungs were perfused with normal saline and fixed in 4% paraformaldehyde overnight for immunohistochemistry or snap frozen in liquid nitrogen for protein and RNA analyses. […] The total number of vessels less than 75 μm was expressed as the number of vessels counted per random microscope field (five random fields per lung at ×200 magnification). Pulmonary arteries with proliferating cells were assessed in PCNA stained lung sections. […]

The subject of data set [4] is PAH PAECs. Briefly: PAH PAEC proliferation assay. In kind it is cell-based, human. The following applies: PAH PAECs vs. DMSO. Here is the method:
PAECs (5×10^3 cells per well) were plated in a 96-well plate and treated with DMSO or MC1568. Cell proliferation was measured by a colorimetric kit for determining cell viability (CellTiter 96 AQueous One Solution Cell Proliferation Assay, Promega) per manufacturer's protocol.

Data set [5] has as its system MEF2 transcriptional targets (Cx37, Cx40, KLF2). The data set is described as follows: MEF2 target expression in PAH PAECs (RT-PCR). In kind it is cell-based, human. The following applies: 1 μM for 24 h, vs. control/DMSO. Here is the method: (§2) PAECs were isolated from normal and PAH explanted donor lungs, as described previously. Additional control PAECs were obtained from Lonza. PAECs from eleven control subjects, seven subjects with IPAH and three subjects with FPAH were studied. In brief, human pulmonary arteries were dissected from the lungs to the distal small arterioles, and PAECs were harvested from the isolated pulmonary arterial tree. PAECs were grown in EBM-2 basal medium supplemented with EGM-2 (Lonza) on fibronectin-coated plates. Cells were passaged at 70-80% confluency, and primary cultures of passages 3 to 7 were used in experiments. All apelin stimulations were done using apelin-13 peptide at 1 μM (Sigma). TSA (Sigma), MC1568 (Selleck Chemicals and DC Chemicals), TMP269 (DC Chemicals), and Tasquinimod (DC Chemicals) were dissolved in DMSO (Sigma) and used at the indicated doses. Total RNA was extracted with an RNA isolation kit, (miRNeasy RNA, Qiagen). Purified RNA was reverse transcribed with a cDNA synthesis kit (iScript cDNA Synthesis Kit, Bio-Rad). RT-PCR was performed with TaqMan probes for both genes and miRNAs (Applied Biosystems). All miRNA data were normalized to the internal control small RNAs RNU19 and HY3 for human samples and U87 for rat samples. For the mRNA samples, ribosomal 18S was used as an internal control. […]

The test system of data set [6] is human coronary artery endothelial cells. The data set is described as follows: Caspase 3 cleavage in human coronary artery endothelial cells. In kind it is cell-based.
The target in data set [7] is T2, HDAC5 (Homo sapiens, UniProt Q9UQL6).
T2 construct: phosphorylation of endogenously expressed HDAC4 and HDAC5; endogenous in cells; host or cells: PAECs from PAH patient(s)
T2 sequence (Q9UQL6 whole entry): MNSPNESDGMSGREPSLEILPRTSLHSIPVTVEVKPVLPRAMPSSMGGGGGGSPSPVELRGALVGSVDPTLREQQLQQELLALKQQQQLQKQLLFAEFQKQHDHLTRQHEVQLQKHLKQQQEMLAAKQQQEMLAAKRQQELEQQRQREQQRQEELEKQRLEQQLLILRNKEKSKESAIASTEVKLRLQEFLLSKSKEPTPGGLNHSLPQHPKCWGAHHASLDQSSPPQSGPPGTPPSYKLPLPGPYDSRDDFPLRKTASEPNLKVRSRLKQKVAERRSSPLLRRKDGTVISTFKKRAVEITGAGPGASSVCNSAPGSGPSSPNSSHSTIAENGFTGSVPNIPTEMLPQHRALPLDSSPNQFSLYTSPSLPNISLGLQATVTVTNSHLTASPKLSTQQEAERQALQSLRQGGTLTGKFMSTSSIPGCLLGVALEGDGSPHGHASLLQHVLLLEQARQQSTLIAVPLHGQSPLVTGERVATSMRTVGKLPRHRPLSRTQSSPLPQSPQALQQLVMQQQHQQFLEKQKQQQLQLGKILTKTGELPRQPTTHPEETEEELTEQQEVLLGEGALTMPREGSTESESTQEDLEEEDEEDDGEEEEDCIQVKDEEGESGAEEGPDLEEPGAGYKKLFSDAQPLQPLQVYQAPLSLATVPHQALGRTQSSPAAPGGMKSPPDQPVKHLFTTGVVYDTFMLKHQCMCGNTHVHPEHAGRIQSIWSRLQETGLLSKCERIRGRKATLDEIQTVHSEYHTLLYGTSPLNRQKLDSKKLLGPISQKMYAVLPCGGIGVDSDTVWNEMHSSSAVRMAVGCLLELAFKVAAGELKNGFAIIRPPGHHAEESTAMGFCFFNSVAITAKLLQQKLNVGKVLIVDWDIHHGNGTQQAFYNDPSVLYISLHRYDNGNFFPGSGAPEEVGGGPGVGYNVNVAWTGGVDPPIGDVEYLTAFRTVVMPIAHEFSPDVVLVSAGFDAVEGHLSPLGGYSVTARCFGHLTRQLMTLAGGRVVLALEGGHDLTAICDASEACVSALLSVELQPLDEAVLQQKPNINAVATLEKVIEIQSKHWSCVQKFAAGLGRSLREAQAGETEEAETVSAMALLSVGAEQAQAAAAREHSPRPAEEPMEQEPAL
Briefly: HDAC5 degradation in PAECs from a PAH patient (western blot). In kind it is cell-based. The following applies: 1 μM for 24 hr.

Data set [8] concerns FGF2. Briefly: FGF2 expression in PAH PAECs. In kind it is cell-based, human. The following applies: 1 μM for 24 h. Here is the method: as §2
Data set [9] deals with rats with experimental pulmonary hypertension. The data set is described as follows: Experimental pulmonary hypertension models in rats (MCT and SU-5416/hypoxia): hemodynamic, morphometric and cardiac analyses. In kind it is in vivo, rat. As to conditions: for right ventricular hypertrophy (right ventricle to left ventricle plus septum weight ratios): SU5416/hypoxia, vs. control; for right ventricular systolic pressures: SU-5416/hypoxia, vs. DMSO. The protocol:
Rat lung tissues were fixed and stained as previously described (Nature medicine 19, 74-82 (2013)). Standard methods (Trichrome Stain, Sigma) were used to stain for collagen in cardiac sections.
as §1
Right ventricular systolic pressure (RVSP) measurements were performed at the designated time points under isoflurane by inserting a catheter (Millar Instruments) into the right jugular vein as described previously.^21 Lungs were perfused with normal saline and fixed in 4% paraformaldehyde overnight for immunohistochemistry or snap frozen in liquid nitrogen for protein and RNA analyses. Hearts were dissected and weighed for calculation of the right ventricle to the left ventricle plus septum weight ratio. The same full section in the midportion of the left lung parallel to the hilum was used and embedded in the same manner for lung morphometric analyses. Pulmonary artery muscularization was assessed at ×200 magnification after staining for vWF and SMA by calculating the ratio of the number of muscularized peripheral pulmonary arteries to the number of total peripheral pulmonary arteries (with diameters less than 75 μm) in five random fields per lung (with each field at ×200 magnification). The total number of vessels less than 75 μm was expressed as the number of vessels counted per random microscope field (five random fields per lung at ×200 magnification). Pulmonary arteries with proliferating cells were assessed in PCNA stained lung sections. Vessels with one or more PCNA staining cell were considered to be PNCA positive. All measurements were carried out by investigators blinded to the experimental condition.

A further data set concerns class IIa HDACs. As to conditions: cited from earlier work.
The subject of data set [10] is MEF2 transcriptional targets (Cx37, Cx40 and KLF2). The data set is described as follows: MEF2 transcriptional target expression in PH model rats. The data set is classed as in vivo, rat. The following applies: PH models, MC1568 50 mg per kg intraperitoneal daily, vs. DMSO. The protocol:
Total RNA was extracted with an RNA isolation kit, (miRNeasy RNA, Qiagen). Purified RNA was reverse transcribed with a cDNA synthesis kit (iScript cDNA Synthesis Kit, Bio-Rad). RT-PCR was performed with TaqMan probes for both genes and miRNAs (Applied Biosystems). All miRNA data were normalized to the internal control small RNAs RNU19 and HY3 for human samples and U87 for rat samples. For the mRNA samples, ribosomal 18S was used as an internal control. Individual RT-PCRs were performed on a CFX96 (Bio-Rad) according to the manufacturer's instructions. […]
Right ventricular systolic pressure (RVSP) measurements were performed at the designated time points under isoflurane by inserting a catheter (Millar Instruments) into the right jugular vein as described previously.^21 Lungs were perfused with normal saline and fixed in 4% paraformaldehyde overnight for immunohistochemistry or snap frozen in liquid nitrogen for protein and RNA analyses. […] Pulmonary artery muscularization was assessed at ×200 magnification after staining for vWF and SMA by calculating the ratio of the number of muscularized peripheral pulmonary arteries to the number of total peripheral pulmonary arteries (with diameters less than 75 μm) in five random fields per lung (with each field at ×200 magnification). […] Pulmonary arteries with proliferating cells were assessed in PCNA stained lung sections. […]

In data set [11] the test system is PAH PAECs. The data set is described as follows: PAH PAEC migration assay. In kind it is cell-based, human. As to conditions: 1 μM. Here is the method: PAECs were grown to post-confluence in 24-well plates, and then subjected to injury using a plastic pipette tip. They were then treated with vehicle or MC1568 (1 μM). The cells were allowed to migrate for 8 h, and the gap distance was calculated in at least five randomly selected microscopic fields per each sample.

The test system of data set [12] is HDAC4. The following applies: PAH PAECs, apelin 1 μM for 1 h. Here is the method:
(§3) Western blotting was performed as previously described (eriosclerosis, thrombosis, and vascular biology 31, 814-820 (2011)). Each western blot is representative of three independent experiments done in triplicate. For the generation of cell lysates, lysis buffer (RIPA, Thermo Scientific) containing a protease and phosphatase inhibitor cocktail (Halt Protease and Phosphatase Inhibitor, Thermo Scientific) was used. Protein contents were measured using a detergent-compatible protein concentration assay (DC™ assay, Bio-Rad).

Data set [13] deals with HDAC5. The following applies: PAH PAECs, apelin 1 μM for 1 h. The protocol:
as §3

In another data set the test system is HDAC4-GFP. As to conditions: PAH PAECs, apelin 1 μM for 1 h. Here is the method: (§4) For the apelin effect on HDAC4/5 translocation, PAECs plated on glass bottom culture dish (Mat-Tek) were transfected with GFP-tagged HDAC4 and HDAC5 expression vectors for 24 hours. Cells were imaged using a Nikon Eclipse Ti confocal microscopy before and after treatment with apelin 13 (1 μM for 1 h at 37° C.).

Another data set concerns HDAC5-GFP. As to conditions: PAH PAECs, apelin 1 μM for 1 h. Here is the method: as §4
The test system of a further data set is MEF2. As to conditions: PAH PAECs, apelin 1 μM for 24 h. The protocol: Either control PAECs or PAH PAECs were transfected and lysed in lysis buffer (Promega). Renilla luciferase was used for normalization. Dual Luciferase Reporter System (Promega) was used according to the manufacturer's protocol. All experiments were performed three times in triplicates.

[14] abbreviates: MCT and SUGEN models, MC1568 50 mg per kg intraperitoneal daily, vs. vehicle (DMSO).
The mark [15] stands for this setting: TMP269 intraperitoneal 50 mg/kg/day for two weeks.
Setting [16] is: Tasquinimod oral gavage 10 mg/kg/day for two weeks.

T1 sequence (P56524 whole entry): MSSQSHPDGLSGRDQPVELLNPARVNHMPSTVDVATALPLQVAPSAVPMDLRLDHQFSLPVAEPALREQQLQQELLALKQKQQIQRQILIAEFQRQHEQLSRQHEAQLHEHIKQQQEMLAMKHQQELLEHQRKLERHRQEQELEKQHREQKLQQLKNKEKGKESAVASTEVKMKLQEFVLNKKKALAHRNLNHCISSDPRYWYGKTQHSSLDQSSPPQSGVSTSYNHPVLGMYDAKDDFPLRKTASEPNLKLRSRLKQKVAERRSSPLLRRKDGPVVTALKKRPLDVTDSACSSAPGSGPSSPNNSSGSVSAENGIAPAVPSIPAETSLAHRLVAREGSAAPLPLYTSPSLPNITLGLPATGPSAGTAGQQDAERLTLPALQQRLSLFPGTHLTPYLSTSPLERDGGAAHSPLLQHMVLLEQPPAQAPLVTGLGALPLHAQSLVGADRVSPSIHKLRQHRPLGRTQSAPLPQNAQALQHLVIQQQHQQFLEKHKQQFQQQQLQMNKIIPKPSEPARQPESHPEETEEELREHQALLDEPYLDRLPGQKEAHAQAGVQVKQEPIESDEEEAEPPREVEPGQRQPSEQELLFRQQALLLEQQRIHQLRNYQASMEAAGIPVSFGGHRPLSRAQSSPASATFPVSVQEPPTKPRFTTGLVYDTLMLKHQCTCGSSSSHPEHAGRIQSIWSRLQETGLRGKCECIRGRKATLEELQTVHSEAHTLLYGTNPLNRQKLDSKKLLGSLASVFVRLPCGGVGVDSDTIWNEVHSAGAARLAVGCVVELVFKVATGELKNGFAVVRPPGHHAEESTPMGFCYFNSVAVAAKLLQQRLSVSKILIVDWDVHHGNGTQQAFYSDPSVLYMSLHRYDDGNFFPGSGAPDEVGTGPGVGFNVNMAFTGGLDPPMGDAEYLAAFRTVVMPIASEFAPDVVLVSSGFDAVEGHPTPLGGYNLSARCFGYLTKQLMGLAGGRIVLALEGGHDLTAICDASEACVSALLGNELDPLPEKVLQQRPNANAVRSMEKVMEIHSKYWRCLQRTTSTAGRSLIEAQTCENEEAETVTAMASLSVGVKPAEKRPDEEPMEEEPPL

For `CCCC(CCC)C(=O)O` [valproic acid], in data set [1], the “effect on the right ventricle” value is listed as “detrimental injury to the right ventricle”.

As to `Cn1c(/C=C/C(=O)NO)ccc1/C=C/C(=O)c1cccc(F)c1` [MC1568, (E)-3-(5-((E)-3-(3-fluorophenyl)-3-oxoprop-1-en-1-yl)-1-methyl-1H-pyrrol-2-yl)-N-hydroxyacrylamide], the “degradation of HDAC4” value at HDAC4 [2] is recorded as “degradation”. The “expression of FGF2 in the lungs” value in the data set with FGF2 [3] was “significantly decreased”. Also, in the data set on PAH PAECs [4], the “PAH PAEC proliferation” value is recorded as “significant reduction”. Also, in [5], the “expression of Cx37, Cx40, and KLF2” value is on record as “significant increased expression”. Besides, the “cellular apoptosis as assessed by caspase 3 cleavage” value in data set [6] is “did not result in caspase activation”. Also, the “degradation of HDAC5” value on HDAC5 [7] is “degradation”. Also, in the data set on FGF2 [8], the “expression of FGF2” value is on record as “significant downregulation”. Moreover, in [9] (MCT and SUGEN groups, MC1568), the “myocardial fibrosis (trichrome staining of right ventricle, gross histology)” value was “no evidence of myocardial fibrosis”. Besides, in [9] (setting [14]), the “muscularization of small arterioles” value was “significantly decreased”, the “right ventricle to left ventricle+septum weight ratios” value was “significant reduction” and the “right ventricular systolic pressures (RVSP)” value is “significant decrease”. In addition, in [9] (MCT and SUGEN models, lungs, MC1568 50 mg per kg intraperitoneal daily, vs. control groups), the “PCNA-positive proliferating vascular cells” value is recorded as “significantly fewer”. Also, the “selectivity for class IIa HDACs over other HDAC classes” value in the data set on class IIa HDACs is “selective inhibition of class IIa HDACs, without affecting other HDAC classes”. For the same compound, the “MEF2 transcriptional targets (Cx37, Cx40 and KLF2) expression” value in data set [10] is reported as “increased”. Moreover, in the data set with PAH PAECs [11], the “PAH PAEC migration” value is given as “significant reduction”.

For the compound `CC(/C=C/C(=O)NO)=C\[C@@H](C)C(=O)c1ccc(N(C)C)cc1` [TSA, trichostatin A], the “cellular apoptosis as assessed by caspase 3 cleavage” value in data set [6] is “marked induction of cellular apoptosis”. In [1], the “effect on the right ventricle” value is given as “detrimental injury to the right ventricle”.

With `O=C(NCC1(c2nc(-c3ccccc3)cs2)CCOCC1)c1cccc(-c2noc(C(F)(F)F)n2)c1` [TMP269, N-((4-(4-phenylthiazol-2-yl)tetrahydro-2H-pyran-4-yl)methyl)-3-(5-(trifluoromethyl)-1,2,4-oxadiazol-3-yl)benzamide], the “degradation of HDAC4” value on HDAC4 [2] is given as “degradation”. In addition, the “expression of Cx37, Cx40, and KLF2” value in [5] was “significantly increased”. Moreover, the “degradation of HDAC5” value at HDAC5 [7] is recorded as “degradation”. In addition, in data set [9] (setting [15]), the “right ventricular hypertrophy (right ventricle to left ventricle plus septum weight ratios)” value is “decreased” and the “right ventricular systolic pressures” value is reported as “significantly reduced”. Moreover, the “PAH PAEC migration” value in the data set on PAH PAECs [11] is “inhibited”.

In the case of `COc1cccc2c1c(O)c(C(=O)N(C)c1ccc(C(F)(F)F)cc1)c(=O)n2C` [Tasquinimod, 4-hydroxy-5-methoxy-N,1-dimethyl-2-oxo-N-[4-(trifluoromethyl)phenyl]-1,2-dihydroquinoline-3-carboxamide], in [9] (setting [16]), the “right ventricular hypertrophy (right ventricle to left ventricle plus septum weight ratios)” value was “decreased” and the “right ventricular systolic pressures” value is “significantly reduced”.

In the case of apelin, the “phosphorylation of HDAC4” value with HDAC4 [12] is listed as “marked increase in phosphorylation”. Moreover, in the data set with HDAC5 [13], the “phosphorylation of HDAC5” value is recorded as “marked increase in phosphorylation”. Further, the “cytoplasmic translocation of HDAC4-GFP” value in the data set on HDAC4-GFP is reported as “robust cytoplasmic translocation”. Further, in the data set with HDAC5-GFP, the “cytoplasmic translocation of HDAC5-GFP” value is “robust cytoplasmic translocation”. In the data set on MEF2, the MEF2 reporter activity entry is given as “significant augmentation”.
